Assay results from article PMC10569036.

What was measured:
[1] = shake flask on a mixture of 185; loss from the water phase only; LC-QTOF peak areas; details: room
[2] = shake flask on a mixture of 185; loss from the water phase only; LC-Orbitrap peak areas; details: room

Row | Structure (SMILES) | log partition 1-octanol / HPLC water, unbuffered, traces of methanol / DMSO [1] | log partition butyl acetate / HPLC water, unbuffered, traces of methanol / DMSO [1] | log partition chloroform / HPLC water, unbuffered, traces of methanol / DMSO [1] | log partition cyclohexane / HPLC water, unbuffered, traces of methanol / DMSO [1] | log partition dichloromethane / HPLC water, unbuffered, traces of methanol / DMSO [1] | log partition n-hexane / HPLC water, unbuffered, traces of methanol / DMSO [1] | log partition n-octane / HPLC water, unbuffered, traces of methanol / DMSO [1] | log partition n-undecane / HPLC water, unbuffered, traces of methanol / DMSO [1] | log partition oleylalcohol / HPLC water, unbuffered, traces of methanol / DMSO [1] | log partition toluene / HPLC water, unbuffered, traces of methanol / DMSO [1] | log partition 1-octanol / HPLC water, unbuffered, traces of methanol / DMSO [2] | log partition butyl acetate / HPLC water, unbuffered, traces of methanol / DMSO [2] | log partition chloroform / HPLC water, unbuffered, traces of methanol / DMSO [2] | log partition cyclohexane / HPLC water, unbuffered, traces of methanol / DMSO [2] | log partition dichloromethane / HPLC water, unbuffered, traces of methanol / DMSO [2] | log partition n-hexane / HPLC water, unbuffered, traces of methanol / DMSO [2] | log partition n-octane / HPLC water, unbuffered, traces of methanol / DMSO [2] | log partition n-undecane / HPLC water, unbuffered, traces of methanol / DMSO [2] | log partition oleylalcohol / HPLC water, unbuffered, traces of methanol / DMSO [2] | log partition toluene / HPLC water, unbuffered, traces of methanol / DMSO [2]
1 | Cn1cnc([N+](=O)[O-])c1Sc1ncnc2nc[nH]c12 | 0.004535 log10 | -0.2382 log10 | -0.4745 log10 | -1.86 log10 | -0.366 log10 | -1.66 log10 | -2.343 log10 | -2.232 log10 | -0.3513 log10 | -1.048 log10 | 0.3085 log10 | 0.621 log10 | 0.1897 log10 | -1.394 log10 | 0.2139 log10 | -1.636 log10 | -1.543 log10 | -1.518 log10 | 0.1703 log10 | -0.3549 log10
2 | CO/C=C(/C(=O)OC)c1ccccc1Oc1cc(Oc2ccccc2C#N)ncn1 | 2.62 log10 | 3.136 log10 | 2.817 log10 | 1.291 log10 | 2.944 log10 | 0.8262 log10 | 0.8047 log10 | 0.5559 log10 | 2.323 log10 | 2.329 log10 |  |  |  |  |  |  |  |  |  | 
3 | Oc1c(Cl)cc(Cl)c(Cl)c1Cc1c(O)c(Cl)cc(Cl)c1Cl | 3.536 log10 | 2.622 log10 | 2.343 log10 | 2.027 log10 | 1.996 log10 | 1.5 log10 | 1.932 log10 | 2.251 log10 | 2.088 log10 | 2.305 log10 |  |  |  |  |  |  |  |  |  | 
4 | Oc1c(Cl)cc(Cl)cc1Sc1cc(Cl)cc(Cl)c1O | 0.7477 log10 | 1.778 log10 | 1.227 log10 | 1.174 log10 | 1.541 log10 | 1.101 log10 | 1.178 log10 | 0.844 log10 | 1.386 log10 | 1.7 log10 |  |  |  |  |  |  |  |  |  | 
